Laboratory results published in the supplement of paper PMC10307832.

Key:
Test in all cases: relative viability (nuclei count vs DMSO), 5 days (fraction); higher = more cells survive
[1] = compound: Cn1c(=O)n(-c2ccc(C(C)(C)C#N)cc2)c2c3cc(-c4cnc5ccccc5c4)ccc3ncc21 [Dactolisib] + Nc1nc2[nH]cc(CCc3ccc(C(=O)N[C@@H](CCC(=O)O)C(=O)O)cc3)c2c(=O)[nH]1 [Pemetrexed] (partner 0.2 µM)
Procedure, shortened: (§1)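 Lung cancer cell lines in 1536-well plates were dosed by pin tool the day after seeding, either with one drug alone or with a fixed anchor-drug dose plus five library-drug doses (not always all listed) in √10 steps. After 5 days, cells were fixed and their nuclei stained in one step (final 0.05% Triton X-100, 1% formaldehyde, 1 ug/ml Hoechst), then counted on 4× images. Relative viability is the nuclei count in treated wells divided by that in vehicle wells. Values are medians of duplicate plates.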

[2] = compound: C1CCC(CC1)N(CCNCCC2=C3C(=C(C=C2)O)NC(=O)CO3)C(=O)CCNCCC4=CC(=C(C=C4)Cl)Cl [AZ505] + COc1cccc2cc(-c3nc([C@H]4CC[C@H](C(=O)O)CC4)n4ncnc(N)c34)[nH]c12 [OSI-027] (partner 0.5 µM)
Procedure, shortened: as §1

[3] = compound: Cn1c(=O)n(-c2ccc(C(C)(C)C#N)cc2)c2c3cc(-c4cnc5ccccc5c4)ccc3ncc21 [Dactolisib]
Procedure, shortened: (§2)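 Vehicle-anchored 1536-well plates of lung cancer cell lines, held overnight at 37 °C, were pinned with five library-drug doses (not always all listed) spaced by √10. No medium change followed over the next 5 days, after which the cells were fixed, permeabilised and Hoechst-stained together and imaged at 4×. Nuclei were counted with MetaXpress, and viability is treated-well nuclei over vehicle-well nuclei, taken as a median across plates. Plates passed with control CV below 25% and at least one doubling.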

[4] = compound: C1CCC(CC1)N(CCNCCC2=C3C(=C(C=C2)O)NC(=O)CO3)C(=O)CCNCCC4=CC(=C(C=C4)Cl)Cl [AZ505]
Procedure, shortened: as §2

NCI-H2126
relative viability ([1]; first compound 0.002 µM): 0.574
relative viability ([1]; first compound 0.006325 µM): 0.717
relative viability ([1]; first compound 0.02 µM): 0.612
relative viability ([1]; first compound 0.06325 µM): 0.471
relative viability ([1]; first compound 0.2 µM): 0.372
relative viability ([2]; first compound 0.08 µM): 0.601
relative viability ([2]; first compound 0.253 µM): 0.6
relative viability ([2]; first compound 0.8 µM): 0.689
relative viability ([2]; first compound 2.53 µM): 0.751
relative viability ([2]; first compound 8 µM): 0.779
relative viability ([3]; 0.002 µM): 1.09
relative viability ([3]; 0.006325 µM): 0.936
relative viability ([3]; 0.02 µM): 0.892
relative viability ([3]; 0.06325 µM): 0.638
relative viability ([3]; 0.2 µM): 0.488
relative viability ([4]; 0.08 µM): 0.993
relative viability ([4]; 0.253 µM): 0.945
relative viability ([4]; 0.8 µM): 0.971
relative viability ([4]; 2.53 µM): 0.984
relative viability ([4]; 8 µM): 0.988

NCI-H2170
relative viability ([1]; first compound 0.002 µM): 0.262
relative viability ([1]; first compound 0.006325 µM): 0.258
relative viability ([1]; first compound 0.02 µM): 0.281
relative viability ([1]; first compound 0.06325 µM): 0.261
relative viability ([1]; first compound 0.2 µM): 0.263
relative viability ([2]; first compound 0.08 µM): 0.743
relative viability ([2]; first compound 0.253 µM): 0.677
relative viability ([2]; first compound 0.8 µM): 0.684
relative viability ([2]; first compound 2.53 µM): 0.738
relative viability ([2]; first compound 8 µM): 0.793
relative viability ([3]; 0.002 µM): 1.02
relative viability ([3]; 0.006325 µM): 0.971
relative viability ([3]; 0.02 µM): 0.96
relative viability ([3]; 0.06325 µM): 0.648
relative viability ([3]; 0.2 µM): 0.447
relative viability ([4]; 0.08 µM): 0.953
relative viability ([4]; 0.253 µM): 1.01
relative viability ([4]; 0.8 µM): 0.932
relative viability ([4]; 2.53 µM): 0.998
relative viability ([4]; 8 µM): 0.976

NCI-H2228
relative viability ([1]; first compound 0.002 µM): 0.35
relative viability ([1]; first compound 0.006325 µM): 0.352
relative viability ([1]; first compound 0.02 µM): 0.324
relative viability ([1]; first compound 0.06325 µM): 0.252
relative viability ([1]; first compound 0.2 µM): 0.144
relative viability ([2]; first compound 0.08 µM): 0.382
relative viability ([2]; first compound 0.253 µM): 0.341
relative viability ([2]; first compound 0.8 µM): 0.49
relative viability ([2]; first compound 2.53 µM): 0.485
relative viability ([2]; first compound 8 µM): 0.477
relative viability ([3]; 0.002 µM): 1.13
relative viability ([3]; 0.006325 µM): 0.812
relative viability ([3]; 0.02 µM): 0.612
relative viability ([3]; 0.06325 µM): 0.38
relative viability ([3]; 0.2 µM): 0.197
relative viability ([4]; 0.08 µM): 0.897
relative viability ([4]; 0.253 µM): 0.859
relative viability ([4]; 0.8 µM): 0.821
relative viability ([4]; 2.53 µM): 1.07
relative viability ([4]; 8 µM): 0.885

NCI-H2342
relative viability ([1]; first compound 0.002 µM): 0.75
relative viability ([1]; first compound 0.006325 µM): 0.833
relative viability ([1]; first compound 0.02 µM): 0.721
relative viability ([1]; first compound 0.06325 µM): 0.779
relative viability ([1]; first compound 0.2 µM): 0.599
relative viability ([2]; first compound 0.08 µM): 0.604
relative viability ([2]; first compound 0.253 µM): 0.712
relative viability ([2]; first compound 0.8 µM): 0.765
relative viability ([2]; first compound 2.53 µM): 0.587
relative viability ([2]; first compound 8 µM): 0.671
relative viability ([3]; 0.002 µM): 0.997
relative viability ([3]; 0.006325 µM): 0.999
relative viability ([3]; 0.02 µM): 0.862
relative viability ([3]; 0.06325 µM): 0.843
relative viability ([3]; 0.2 µM): 0.591
relative viability ([4]; 0.08 µM): 1.03
relative viability ([4]; 0.253 µM): 1.08
relative viability ([4]; 0.8 µM): 1.17
relative viability ([4]; 2.53 µM): 1.07
relative viability ([4]; 8 µM): 1.08

NCI-H2347
relative viability ([1]; first compound 0.002 µM): 0.459
relative viability ([1]; first compound 0.006325 µM): 0.459
relative viability ([1]; first compound 0.02 µM): 0.426
relative viability ([1]; first compound 0.06325 µM): 0.411
relative viability ([1]; first compound 0.2 µM): 0.422
relative viability ([2]; first compound 0.08 µM): 0.25
relative viability ([2]; first compound 8 µM): 0.343
relative viability ([3]; 0.002 µM): 1.27
relative viability ([3]; 0.006325 µM): 0.971
relative viability ([3]; 0.02 µM): 0.958
relative viability ([3]; 0.06325 µM): 0.771
relative viability ([3]; 0.2 µM): 0.517
relative viability ([4]; 0.08 µM): 0.643
relative viability ([4]; 0.253 µM): 0.759
relative viability ([4]; 0.8 µM): 0.738
relative viability ([4]; 2.53 µM): 0.589
relative viability ([4]; 8 µM): 0.833

NCI-H2405
relative viability ([1]; first compound 0.002 µM): 1.1
relative viability ([1]; first compound 0.006325 µM): 1.03
relative viability ([1]; first compound 0.02 µM): 0.972
relative viability ([1]; first compound 0.06325 µM): 0.641
relative viability ([1]; first compound 0.2 µM): 0.378
relative viability ([2]; first compound 0.08 µM): 0.436
relative viability ([2]; first compound 0.253 µM): 0.511
relative viability ([2]; first compound 0.8 µM): 0.528
relative viability ([2]; first compound 2.53 µM): 0.574
relative viability ([2]; first compound 8 µM): 0.501
relative viability ([3]; 0.002 µM): 1.01
relative viability ([3]; 0.006325 µM): 0.993
relative viability ([3]; 0.02 µM): 0.97
relative viability ([3]; 0.06325 µM): 0.607
relative viability ([3]; 0.2 µM): 0.447
relative viability ([4]; 0.08 µM): 0.769
relative viability ([4]; 0.253 µM): 0.707
relative viability ([4]; 0.8 µM): 0.784
relative viability ([4]; 2.53 µM): 0.892
relative viability ([4]; 8 µM): 0.82

NCI-H3122
relative viability ([1]; first compound 0.002 µM): 0.171
relative viability ([1]; first compound 0.006325 µM): 0.189
relative viability ([1]; first compound 0.02 µM): 0.203
relative viability ([1]; first compound 0.06325 µM): 0.192
relative viability ([1]; first compound 0.2 µM): 0.211
relative viability ([2]; first compound 0.08 µM): 0.927
relative viability ([2]; first compound 0.253 µM): 0.917
relative viability ([2]; first compound 0.8 µM): 1.05
relative viability ([2]; first compound 2.53 µM): 0.875
relative viability ([2]; first compound 8 µM): 0.996
relative viability ([3]; 0.002 µM): 0.993
relative viability ([3]; 0.006325 µM): 1.01
relative viability ([3]; 0.02 µM): 0.981
relative viability ([3]; 0.06325 µM): 0.99
relative viability ([3]; 0.2 µM): 0.751
relative viability ([4]; 0.08 µM): 0.972
relative viability ([4]; 0.253 µM): 1.01
relative viability ([4]; 0.8 µM): 0.975
relative viability ([4]; 2.53 µM): 0.931
relative viability ([4]; 8 µM): 1.02
